Assays:
[1] = target: T1, c-kit kinase domain (Homo sapiens, UniProt P10721); test: c-kit kinase activity biochemical assay (AlphaScreen PY20 or 33P radiolabeled ATP detection); details: as measured by at least one of AlphaScreen or 33P ATP assay; ATP 10 μM in the AlphaScreen assay; read-out: IC50, inhibition of c-kit kinase activity
T1 construct: C-Kit kinase domain (starting amino acid M551, ending amino acid K949); made in house; host or cells: E. coli
Source text: Compounds 1-1, 1-2, 1-3, and 1-4 of Table 1 were similarly assayed using a ^33P radiolabeled ATP for detection (Upstate USA, Charlottesville, Va.).

[2] = test system: M-07e cell line stimulated by SCF; test: M-07e SCF-stimulated cell proliferation (CellTiter-Glo); format: cell-based; details: 72 h, 100 ng/ml SCF, three days, luminescence (ATP content), read-out: IC50, growth of SCF stimulated M-07e cells
Source text: As one example, M-07e cell line (DSMZ catalog #ACC 104) is stimulated by SCF, which binds and activates c-kit tyrosine kinase receptor.

[3] = test system: cells with activating c-kit mutations in the catalytic region; details: Ma et al., 2002, Blood 99:1741-1744; cited from earlier work

T1 sequence (P10721 552-948 limits assumed): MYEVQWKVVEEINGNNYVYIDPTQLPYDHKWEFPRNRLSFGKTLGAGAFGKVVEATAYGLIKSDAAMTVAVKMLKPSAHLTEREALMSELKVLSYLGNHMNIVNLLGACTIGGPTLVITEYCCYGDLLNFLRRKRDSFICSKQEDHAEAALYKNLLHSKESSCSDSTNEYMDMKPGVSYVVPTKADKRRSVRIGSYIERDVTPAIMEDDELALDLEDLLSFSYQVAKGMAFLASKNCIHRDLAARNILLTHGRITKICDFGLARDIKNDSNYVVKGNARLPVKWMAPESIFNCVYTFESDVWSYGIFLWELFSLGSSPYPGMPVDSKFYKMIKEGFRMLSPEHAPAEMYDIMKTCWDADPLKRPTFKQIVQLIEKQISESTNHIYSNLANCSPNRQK

| SMILES | IC50 [1] | IC50 [2] | inhibition of cells with c-kit mutations in the catalytic region [3] |
| --- | --- | --- | --- |
| Clc1ccc(CNc2ccc(Cc3c[nH]c4ncccc34)cn2)cc1 [Compound 1-2, (4-chloro-benzyl)-[5-(1H-pyrrolo[2,3-b]pyridin-3-ylmethyl)-pyridin-2-yl]-amine] | < 1000 nM | < 1000 nM | – |
| Fc1ccc(CNc2ccc(Cc3c[nH]c4ncccc34)cn2)cc1 [Compound 1-3, (4-fluoro-benzyl)-[5-(1H-pyrrolo[2,3-b]pyridin-3-ylmethyl)-pyridin-2-yl]-amine] | < 1000 nM | – | – |
| Cc1ccc(CNc2ccc(Cc3c[nH]c4ncccc34)cn2)cc1 [Compound 1-4, (4-methyl-benzyl)-[5-(1H-pyrrolo[2,3-b]pyridin-3-ylmethyl)-pyridin-2-yl]-amine] | < 1000 nM | – | – |
| Cc1ccc(NC(=O)c2ccc(CN3CCN(C)CC3)cc2)cc1Nc1nccc(-c2cccnc2)n1 [ST1571] | – | – | did not inhibit |
